What all share (test): NCI-60 cell line screen, 48 h
Assay [1] deals with LOX IMVI melanoma.
In assay [2] the test system is RXF-631 renal.
Assay [3] concerns KM20L2 colon.
In assay [4] the test system is M19-MEL melanoma.
The subject of assay [5] is SNB-78 CNS.
Assay [6] relates to DMS 114 small cell lung.
Assay [7] deals with LXFL 529 NSCLC.
The subject of assay [8] is DMS 273 small cell lung.
Assay [9] deals with XF 498 CNS.
Assay [10] has as its system DLD-1 colon.
The subject of assay [11] is HOP-18 NSCLC.

Values joined by “and” are separate entries in the source; they are usually repeats but may differ in a detail not shown here. Equal values may be shown once.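 Five compound concentrations were applied to cells in 96-well plates for 48 hours; endpoints were derived by simple linear interpolation of the resulting dose-response curve. The concentration for full growth arrest is given as TGI.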 Where a SMILES comes first, the peptide text is derived from it. The star is where a group is joined. Fmoc = O=C(OCC1c2ccccc2-c2ccccc21)*; Boc = CC(C)(C)OC(=O)* Where only a bound is given, the exact number is not on record here.

As for `CC(C)[Si](OC1=CCC[C@H]2NC(=O)[C@@H](Cc3ccc([N+](=O)[O-])cc3)[C@@]12C)(C(C)C)C(C)C`, in [1], the TGI is 15.8 µM.

Take `CC1OC(n2cnc3c(N)nc(Cl)nc32)C(C)(O)C1O` (configuration not stated): in assay [1], the TGI was above 25 µM.

In assay [1], `O=c1c2cc([N+](=O)[O-])cnc2sn1-c1ccc(Br)cc1` showed a TGI of 52.5 µM.

`Cc1ccc(S(=O)(=O)NC(=O)NCC(=O)O)cc1` came in with a TGI in [1] above 100 µM.

On to `CC(C)(C)OC(=O)NCCCCC(NC(=O)C(Cc1c[nH]c2ccccc12)NC(=O)OCC1c2ccccc2-c2ccccc21)C(=O)O` (configuration not stated) (Fmoc-Trp-Lys(Boc)-OH; configuration not given here), for which the TGI in assay [1] amounted to 46.2 µM.

`COc1cc(C2S/C(=C/c3ccccc3)C(=O)N2c2ccccn2)cc(OC)c1OC` (configuration not stated) gave a TGI in assay [1] of 26.9 µM.

Turning to `NC(=O)N=Nc1c2ccccc2n2[nH]ccc12`, the TGI in assay [1] is above 100 µM.

The molecule `COc1cccc(-c2cc(=O)c3cc(N4CCCC4)ccc3[nH]2)c1` had a TGI in assay [1] of 0.00131 µM.

The molecule `CCCC(=O)Oc1cc(OC(=O)CCC)c2c(C)cc(=O)oc2c1` gave a TGI in [1] above 100 µM.

In the case of `COc1cc(OC)cc(Oc2nc3c(N)cc(C(F)(F)F)cc3nc2-c2ccccc2)c1`, the TGI in [1] worked out at 45.9 µM.

Take `C#CC1(O)CC(c2ccccc2)N(C)C(c2ccccc2)C1` (configuration not stated): the TGI in assay [1], in assay [2], in [3], in assay [4], in assay [5] and in assay [6] was above 100 µM each time. Also, the TGI in [7] and in [8] was above 100 µM each time.

As for `Cc1cc(C)nc(NS(=O)(=O)c2ccc(NC(=O)c3ccc4nc5ccccc5c(Nc5ccc(S(=O)(=O)Nc6nc(C)cc(C)n6)cc5)c4c3)cc2)n1`, the TGI in assay [1] is 43.4 µM.

For the molecule `Cc1ccc2c(c1)C/C(=C\c1ccccc1C(=O)O)C2=O`, in assay [1], the TGI was above 100 µM.

In turn, `COc1ccc(/C=C2\CC3C4CC=C5C[C@@H](O)CC[C@]5(C)C4CC[C@]3(C)C2=O)cc1OC` (some centres not stated) came in with a TGI in assay [1] above 100 µM.

Regarding `OCC(O)C(O)C(C=NNc1ncnc2ccc(Br)cc12)=NNc1ncnc2ccc(Br)cc12` (configuration not stated), in assay [1], the TGI was 14.9 µM and > 100 µM.

In turn, `CC(C)=C=CC(C)(C)NS(=O)(=O)NC(C)(C)C=C=C(C)C` gave a TGI in assay [1] above 100 µM.

In [1], `CCCCn1c2c(n(CCCC)c1=[Se])-c1c(n(CCCC)c(=[Se])n1CCCC)S[Se][Se]S2` gave a TGI of 30.1 µM.

For `Nc1nc2c(ncn2CC(CO)CC(c2ccccc2)P(=O)(O)O)c(=O)[nH]1` (configuration not stated), the TGI in assay [1], in assay [9], in assay [10], in [3], in assay [11] and in assay [4] was above 100 µM each time. Further, the TGI in assay [5], in assay [6], in assay [7] and in [8] was above 100 µM in each case.

`N#Cc1c(Nc2ccccc2)[n+]([O-])c2ccc(Cl)cc2[n+]1[O-]`: the TGI in assay [1] was determined as 12.7 µM.

`Cc1cn(C2CC(O)C(Cn3nncc3Cn3ccc(=O)[nH]c3=O)O2)c(=O)[nH]c1=O` (configuration not stated) yielded a TGI in assay [1] above 100 µM.

Turning to `COc1cc(N(CCC#N)CCC#N)ccc1/C(N=Nc1cccc(C)c1)=N\NC(=O)c1ccc(C)cc1`, the TGI in assay [1] was above 100 µM.

`Nc1c(O)c(C(=O)O)cc2ccccc12`: the TGI in [1] amounted to 22.5 µM.

Molecule `CC1(C)N=C(N)N=C(N)N1CCCCc1ccccc1` had a TGI in assay [1] above 100 µM.

The molecule `CCOC(=O)c1c(CN2CCOCC2)n(Cc2ccccc2)c2c1cc(O)c1nc(C)c(C)nc12` gave a TGI in assay [1] above 100 µM.

In assay [1], `NNC(=O)CSc1nnc(CCCCCCCCc2nnc(SCC(=O)NN)o2)o1` gave a TGI above 100 µM.

As to `COC(=O)C(=O)C(C(=O)C(=O)Nc1nc(=S)[nH][nH]1)c1nc2ccc([N+](=O)[O-])cc2[nH]c1=O` (configuration not stated), the TGI in [1] is above 100 µM.

In [1], `O=Cc1ccc2[nH]c(=O)oc2c1` gave a TGI above 100 µM.

Turning to `O[C@H]1[C@@H]2OC[C@@H](O)[C@H](OCc3ccccc3)[C@@](COCc3ccccc3)(O2)[C@@H]1OCc1ccccc1`, in [1], the TGI was 32.7 µM.

With `NC(=O)N/N=C/c1ccccc1O`, in assay [1], the TGI is above 100 µM.

The molecule `NC1=CN(Cc2ccccc2)C2=N/C(=C\c3ccco3)C(=O)N12` showed a TGI in assay [1] above 100 µM.

For the molecule `C[C@]12CC[C@H]3[C@@H](CCC4=CC(=O)CC[C@@]43C)[C@@H]1CC[C@@H]2OC(=O)c1cccc2c(=O)c3ccccc3[nH]c12`, the TGI in [1] is 62.1 µM.

`CCCNC(=O)c1cc(NC(=O)c2cc(NC(=O)CCS(=O)(=O)OC)cn2C)cn1C` displayed a TGI in assay [1] of 43.6 µM.

In assay [1], `S=c1sscc1N1CCSc2ssc(=S)c21` returned a TGI above 100 µM.

Turning to `CC(C)(C)OC(=O)CC(NC(=O)OC(C)(C)C)C(=O)Oc1ccc([N+](=O)[O-])cc1` (configuration not stated), the TGI in assay [1] is above 100 µM.

In assay [1], `CC(=O)Nc1ccc2c3c(cc(O)c2c1)N(C(=O)CCCCCC(=O)Nc1ccc2c4c(cc(O)c2c1)N(C(=O)OC(C)(C)C)CC4CCl)CC3CCl` (configuration not stated) showed a TGI of 18.2 µM.

Molecule `Cc1ccc2nnc(NS(=O)(=O)c3cc(C)c(Cl)cc3S)n2n1` returned a TGI in [1] above 100 µM.

In assay [1], `Cc1c(C=C(C#N)C#N)c(=O)n(C)c(=O)n1C` gave a TGI above 100 µM.

With `COC1=CC(=O)C2C(C1=O)[C@@H]1c3ccccc3OC[C@H]21` (some centres not stated), the TGI in assay [1], in assay [10], in assay [3], in assay [11], in assay [5] and in assay [6] was above 100 µM each time. Also, the TGI in [7] and in [8] was above 100 µM throughout.

In turn, `Cc1cccc(/C=C2\CCCCCC2=O)c1` came in with a TGI in [1] above 100 µM.

`C/C(CC(O)(C(F)(F)F)C(F)(F)F)=N/Nc1ccc([N+](=O)[O-])cc1[N+](=O)[O-]`: the TGI in assay [1] is above 10 µM.

`O=C(CC(C(=O)c1cccs1)c1ccccc1)c1ccccc1O` (configuration not stated) yielded a TGI in assay [1] above 47.4 µM.

The molecule `NC(N)=N/N=C/c1c(-c2ccc(Cl)cc2)nc2n1CCS2` came in with a TGI in [1] of 18 µM.

As for `C=[N+](CNC(=O)CNC(=O)C(Cc1ccccc1)NC(=O)OC(C)(C)C)C(=O)CNC(=O)C(Cc1ccccc1)NC(=O)OC(C)(C)C` (configuration not stated), the TGI in [1] was above 100 µM.

In [1], `Cc1ccc(S(=O)(=O)N/N=C2\CC3C4CCC3C2C4)cc1` (configuration not stated) had a TGI above 100 µM.

Values taken from PubChem BioAssay (NCI).
